Laboratory results as given in article PMC4790305, “An FDA-Drug Library Screen for Compounds with Bioactivities against Meticillin-Resistant Staphylococcus aureus (MRSA)” (Antibiotics, 2015).
Converted amounts (≈) assume the structure as drawn. Like-named read-outs stand apart in the source and are kept apart here.

Tests used:
[1] = system: Adult normal human epidermal keratinocytes (NHEK); experiment: Human epidermal keratinocyte viability (GI50) assay; format: cell-based; details: 120 h, read-out: Keratinocyte GI50
Experimental: Adult normal human epidermal keratinocytes (NHEK) were purchased from Lonza (catalog #00192627, Basel, Switzerland) and cultured in keratinocyte growth medium (Lonza KGM-Gold Bullet Kit) containing growth supplements (Lonza Reagent Pack) at 5% CO2 (37 °C). The cell viability assay was performed using the CellTiter-Glo Luminescent Cell Viability Assay protocol from Promega (www.promega.com, Fitchburg, WI, USA). Briefly, NHEK were treated with test compounds in keratinocyte growth medium in 96-well plates (Thermo Scientific Nunclon Delta, Waltham, MA, USA). Treated cells were incubated for 5 days at 5% CO2 (37 °C). Promega CellTiter-Glo Reagent was added and plates were shaken on an orbital shaker for […]. Next, well contents (100 μL) from each well were transferred into opaque 96-well plates (PerkinElmer OptiPlate-96) and luminescence measured by a microplate reader (Tecan Safire2).

[2] = system: VISA (ATCC-700699); experiment: Minimum inhibitory concentration (MIC) assay, VISA; format: cell-based, meticillin-resistant Staphylococcus aureus; details: Staphylococcus aureus, ATCC 700699 / MRSA / VISA, read-out: MRSA MICs VISA
Text: (§1) The 1163 FDA-approved drugs were purchased as a library set from Selleckchem (catalog #L1300). For MIC assays, Ivacaftor, Mupirocin and Tigecycline were purchased from Santa Cruz Biotechnology (Dallas, TX, USA). All other test compounds were purchased from Sigma-Aldrich (St. Louis, MO, USA) and were used without further purification. MRSA strains USA 100 (ATCCBAA-1681), USA 300 (ATCC-BAA-1680), USA400 (ATCC-BAA-1707) and VISA (ATCC-700699) were purchased from ATCC (Manassas, VA, USA).
(§2) The MICs of antibiotics and peptides were determined using the microdilution method from the Clinical and Laboratory Standards Institute (CLSI) guidelines. Briefly, bacteria were grown fresh from frozen stock in MH2 agar at 37 °C. After an overnight incubation, five MRSA colonies were selected to grow in cation-adjusted MH2 broth (BD Biosciences catalog #212322) in a shaker incubator at 37 °C, 220 RPM. Cells were grown to an optical density (OD600) of 0.15–0.16 using a Microplate Spectrophotometer (Molecular Devices Spectra Max Plus), which corresponds to 1–2 × 10^8 CFU/mL. Test compounds were constituted into 4 mM DMSO stock solutions and then subjected to two-fold serial dilution in a 96-well plate with concentrations ranging from 100 to 0.2 μM in duplicates. The amount of 50 μL of microbial culture containing ~1–2 × 10^6 CFU/mL of microbes in the respective broths was introduced into each well containing 50 μL of compound. After an overnight incubation at 35 °C, OD600 measurements were conducted using the Microplate Spectrophotometer. The MIC was defined as the lowest drug concentration (μM) required to inhibit microbial growth.

[3] = system: MRSA USA300; experiment: Bactericidal/static determination assay; format: cell-based, meticillin-resistant Staphylococcus aureus; details: MRSA USA300, 4× MIC; bactericidal when ≥99.9% cell death
Experimental: After the MICs of test compounds were determined using the microdilution method described in Section 2.2, the entire well contents (100 μL) corresponding to 4× the MIC of the antibiotic or peptide were transferred and spread on fresh sterile MH2 agar plates. The plates were incubated overnight at 37 °C and the number of colony forming units (CFU) was determined the next day. A compound was classified as bactericidal when ≥99.9% cell death was observed.

[4] = system: MRSA USA 300 (ATCC-BAA-1680); experiment: Minimum inhibitory concentration (MIC) assay, MRSA USA 300; format: cell-based, meticillin-resistant Staphylococcus aureus; details: Staphylococcus aureus, read-out: MRSA MICs USA 300
Text: as §1, §2

[5] = system: MRSA USA300; experiment: Time-kill assay; format: cell-based, meticillin-resistant Staphylococcus aureus; details: MRSA USA300, 4× MIC, within 6 h
Experimental: Bacteria cells were grown to 1 × 10^8 CFU/mL in MH2 broth and then diluted […] into 5 mL aliquots to a density of 1 × 10^6 CFU/mL in a flask. Test compounds pre-dissolved in DMSO corresponding to 4× their MICs were then added into each flask with a final DMSO concentration of 2.5% v/v. The negative control was 2.5% DMSO. The flasks were incubated in a shaking incubator (220 RPM) at 37 °C. Samples (100 μL) were taken hourly from the flasks between t = 0 and t = 6 h. The samples were serially diluted in MH2 broth before plating on sterile MH2 agar and incubated overnight at 37 °C. A bacteria count for each plate was conducted the next day. A graph of Log CFU/mL was plotted against time to obtain the time-kill graph.

[6] = system: MRSA USA 100 (ATCCBAA-1681); experiment: Minimum inhibitory concentration (MIC) assay, MRSA USA 100; format: cell-based, meticillin-resistant Staphylococcus aureus; details: Staphylococcus aureus, read-out: MRSA MICs USA 100
Text: as §1, §2

[7] = system: MRSA USA400 (ATCC-BAA-1707); experiment: Minimum inhibitory concentration (MIC) assay, MRSA USA 400; format: cell-based, meticillin-resistant Staphylococcus aureus; details: Staphylococcus aureus, read-out: MRSA MICs USA 400
Text: as §1, §2

[8] = system: panel of clinical MRSA strains (USA 100, USA 300, USA 400 and VISA); experiment: MIC assay against panel of clinical MRSA strains; format: cell-based, meticillin-resistant Staphylococcus aureus; details: Staphylococcus aureus, across USA 100, USA 300, USA 400 and VISA
Text: as §1, §2

[9] = system: MRSA USA100; experiment: Single-point 10 μM bacteria growth inhibition assay; format: cell-based, meticillin-resistant Staphylococcus aureus; details: MRSA USA 100
Text: as §1
MRSA USA100 was grown from frozen glycerol stock on Mueller Hinton 2 (MH2) agar overnight at 37 °C. Five colonies were selected from the agar plate and grown in cation-adjusted MH2 broth (BD Biosciences catalog #212322, Franklin Lakes, NJ, USA) in a shaker incubator at 37 °C, 220 RPM. Cells were grown to 1–2 × 10^8 CFU/mL and diluted 1:100 in MH2 broth. An amount of 50 μL of test compounds pre-dissolved in MH2 broth at 20 μM concentrations were added in duplicates into each well in a 96-well plate. A total of 50 μL of bacteria inoculums containing ~1 × 10^6 CFU/mL of bacteria in MH2 broth was introduced into each well containing the test compounds. The final DMSO concentration was kept at 2.5% in each well. After an overnight incubation at 35 °C, optical density (OD600) of each well was determined using the Microplate Spectrophotometer (Molecular Devices Spectra Max Plus, Sunnyvale, CA, USA).

[10] = cited from earlier work
[11] = system: human carcinoma cell lines; details: cited from earlier work
[12] = system: mouse; set-up: method as in PMID 12724731; details: cited from earlier work
[13] = intravenously administered; cited from earlier work
[14] = system: rats; details: rat, cited from earlier work
[15] = 5 days incubation, CellTiter-Glo
[16] = printed conversion of μM values

SMILES	MIC ([2]; microdilution, overnight 35 °C) [µM]	MIC ([4]; microdilution, overnight 35 °C) [µM]	MIC ([6]; microdilution, overnight 35 °C) [µM]	MIC ([7]; microdilution, overnight 35 °C) [µM]	GI50 [1, 15] [µM]	MIC [8] [µM]	Antibacterial activity in single-point screen [9]	also measured
CC(C)(C)c1cc(C(C)(C)C)c(NC(=O)c2c[nH]c3ccccc3c2=O)cc1O [Ivacaftor]	6.25 (≈ 2.45 µg/mL)	6.25 (≈ 2.45 µg/mL)	6.25 (≈ 2.45 µg/mL)	6.25 (≈ 2.45 µg/mL)	5.9 ± 0.5	6.25	either bacteriostatic or bactericidal	–
O=C(Nc1ccc([N+](=O)[O-])cc1Cl)c1cc(Cl)ccc1O [Niclosamide]	0.39 (≈ 0.128 µg/mL)	0.39 (≈ 0.128 µg/mL)	0.78 (≈ 0.255 µg/mL)	0.78 (≈ 0.255 µg/mL)	< 0.2	0.39 to 0.78	either bacteriostatic or bactericidal	oral LD50 [10]: > 1000 mg/kg; cytotoxic concentrations towards human carcinoma cell lines [11]: sub-micromolar
CN[C@H](CC(C)C)C(=O)N[C@H]1C(=O)N[C@@H](CC(N)=O)C(=O)N[C@H]2C(=O)N[C@H]3C(=O)N[C@H](C(=O)N[C@H](C(=O)O)c4cc(O)cc(O)c4-c4cc3ccc4O)[C@H](O)c3ccc(c(Cl)c3)Oc3cc2cc(c3O[C@@H]2O[C@H](CO)[C@@H](O)[C@H](O)[C@H]2O[C@H]2C[C@](C)(N)[C@H](O)[C@H](C)O2)Oc2ccc(cc2Cl)[C@H]1O [Vancomycin]	–	–	–	–	–	–	–	GI50 [1]: > 100 µM; MIC [2]: 6.25 µM (≈ 9.06 µg/mL); MIC [4]: 0.78 µM (≈ 1.13 µg/mL); MIC [6]: 0.78 µM (≈ 1.13 µg/mL); MIC [7]: 0.78 µM (≈ 1.13 µg/mL)
O=c1[nH]cc(F)c(=O)[nH]1 [5-fluorouracil, 5-Fluorouracil]	6.25 (≈ 0.813 µg/mL)	3.13 (≈ 0.407 µg/mL)	6.25 (≈ 0.813 µg/mL)	3.13 (≈ 0.407 µg/mL)	33.3 ± 2.6	3.13 to 6.25	either bacteriostatic or bactericidal	intravenous LD50 [12]: 81 mg/kg; half-life [13]: 10 to 16 min
Nc1ccn([C@@H]2O[C@H](CO)[C@@H](O)C2(F)F)c(=O)n1 [Gemcitabine]	0.05 (≈ 0.0132 µg/mL)	0.05 (≈ 0.0132 µg/mL)	0.1 (≈ 0.0263 µg/mL)	0.1 (≈ 0.0263 µg/mL)	1.9 ± 0.2	0.05 to 0.1	either bacteriostatic or bactericidal	MIC [8, 16]: 10 to 20 ng/mL; intravenous LD50 ([14]; intravenous): 236 mg/kg
O=c1[nH]c(=O)n([C@H]2C[C@H](O)[C@@H](CO)O2)cc1F [Floxuridine]	0.00625 (≈ 0.00154 µg/mL)	0.00313 (≈ 0.000771 µg/mL)	0.025 (≈ 0.00615 µg/mL)	0.0125 (≈ 0.00308 µg/mL)	> 100	0.00313 to 0.025	either bacteriostatic or bactericidal	MIC [8, 16]: 0.77 to 6.16 ng/mL; Bactericidal/static classification [3]: bactericidal; intraperitoneal LD50 ([14]; intraperitoneal): 1600 mg/kg; log reduction in bacteria count [5]: ~2 log
OC1(c2ccc(Cl)c(C(F)(F)F)c2)CCN(CCCC(c2ccc(F)cc2)c2ccc(F)cc2)CC1 [Penfluridol]	3.13 (≈ 1.64 µg/mL)	3.13 (≈ 1.64 µg/mL)	3.13 (≈ 1.64 µg/mL)	3.13 (≈ 1.64 µg/mL)	2.1 ± 0.6	3.13	either bacteriostatic or bactericidal	–

Further lines, with some results ahead:

MIC ([2]; microdilution, overnight 35 °C) [µM]	MIC ([4]; microdilution, overnight 35 °C) [µM]	MIC ([6]; microdilution, overnight 35 °C) [µM]	MIC ([7]; microdilution, overnight 35 °C) [µM]	SMILES	GI50 [1, 15] [µM]	MIC [8] [µM]	Antibacterial activity in single-point screen [9]	also measured
3.13 (≈ 1.06 µg/mL)	6.25 (≈ 2.11 µg/mL)	6.25 (≈ 2.11 µg/mL)	6.25 (≈ 2.11 µg/mL)	CC(=O)NC[C@H]1CN(c2ccc(N3CCOCC3)c(F)c2)C(=O)O1 [Linezolid]	> 100	–	–	Bactericidal/static classification [3]: bacteriostatic; log reduction in bacteria count [5]: less than a log reduction
> 100	0.2 (≈ 0.085 µg/mL)	> 100	0.2 (≈ 0.085 µg/mL)	CCC[C@@H]1C[C@@H](C(=O)N[C@@H]([C@H]2O[C@H](SC)[C@H](O)[C@@H](O)[C@H]2O)[C@H](C)Cl)N(C)C1 [Clindamycin]	> 50	–	–	–
1.56 (≈ 0.914 µg/mL)	0.78 (≈ 0.457 µg/mL)	0.78 (≈ 0.457 µg/mL)	0.78 (≈ 0.457 µg/mL)	CN(C)c1cc(NC(=O)CNC(C)(C)C)c(O)c2c1C[C@H]1C[C@H]3[C@H](N(C)C)C(O)=C(C(N)=O)C(=O)[C@@]3(O)C(O)=C1C2=O [Tigecycline]	20.6 ± 4.2	–	–	–
> 100	0.39 (≈ 0.195 µg/mL)	0.78 (≈ 0.39 µg/mL)	0.39 (≈ 0.195 µg/mL)	C/C(=C\C(=O)OCCCCCCCCC(=O)O)C[C@@H]1OC[C@H](C[C@@H]2O[C@H]2[C@@H](C)[C@H](C)O)[C@@H](O)[C@H]1O [Mupirocin]	> 50	–	–	–
12.5 (≈ 5.56 µg/mL)	0.78 (≈ 0.347 µg/mL)	0.39 (≈ 0.173 µg/mL)	1.56 (≈ 0.693 µg/mL)	C[C@H]1c2cccc(O)c2C(=O)C2=C(O)[C@]3(O)C(=O)C(C(N)=O)=C(O)[C@@H](N(C)C)[C@@H]3[C@@H](O)[C@@H]21 [Doxycycline]	36.9 ± 3.7	–	–	–
